# Test results: patent publication US20240306646A1, “BROAD SPECTRUM PATHOGEN CONTROL IN PLANTS” (APHEA. BIO NV, priority 2021, published 2024)
# Key:
# Type in all cases: cell-based
# Fusarium graminearum = conditions: in vitro
# Zymoseptoria tritici = tested on: Zymoseptoria tritici
# Puccinia striiformis = assay: In vitro antifungal screening of strain extracts and fractions
substance,measurement,setting,value
Takanawaene C,"growth inhibition, Fusarium graminearum",Fusarium graminearum,100% growth
same,"growth inhibition, Zymospetoria tritici",Zymoseptoria tritici,9% growth
same,"growth inhibition, Puccinia striiformis",Puccinia striiformis,100% inhibition
